{"source": "patent US20110020312A1", "about": "“METHODS FOR TREATMENT OF METABOLIC DISORDERS USING EPIMETABOLIC SHIFTERS, MULTIDIMENSIONAL INTRACELLULAR MOLECULES, OR ENVIRONMENTAL INFLUENCERS” (priority 2009, published 2011)", "key": {"[1]": {"tested_on": "SKBr3 cells", "test": "Nexin assay for apoptosis, 24 h Q10", "assay_type": "cell-based, human", "conditions": "50 μM or 100 μM Q10, 24 hours", "from_the_text": "(§1) The 7AAD dye will enter into cells with permeabilized cell membranes; primarily those cells that are in late apoptosis. Annexin-V-PE is a dye that binds to Phosphotidyl serine, which is exposed on the outer surface of the plasma membrane in early apoptotic cells. The Nexin reagent thus can be used to differentiate between different populations of apoptotic cells in a flow cytometer."}, "[2]": {"tested_on": "SCC cells", "test": "Real-time PCR Diabetes Array", "assay_type": "cell-based", "conditions": "100 μM", "from_the_text": "The control cells were untreated cells."}, "[3]": {"tested_on": "a variety of cell types", "test": "Western blot analysis (Bcl-xL, Vimentin, oxidative phosphorylation and mitochondrial membrane proteins)", "assay_type": "cell-based", "conditions": "50 or 100 μM Q10", "protocol": "Approximately 50 μg of protein were assayed per sample by immunoblotting. All treatments were run in triplicate with controls. […] The primary antibodies were incubated overnight at 4 degrees C. in a 5% BSA and TBST solution. Secondary antibodies were incubated for one hour at 4 degrees. All antibodies were purchased from Cell Signaling Technology. Antibodies were used at a ratio of 1:1000, with the exception of PActin at a ratio of 1:5000. Blots were developed and results were quantified using the NIH Java based densitometer analysis software Image J. All blots were also probed for and normalized to their respective PActin expression.\nThe first experiment processed and evaluated by Western blot and 2-D gel electrophoresis was carried out on the skin cancer cell line SKMEL-28.\nA variety of cell types were evaluated by Western blot analysis against an antibody for Bcl-xL (FIG. 14), an antibody for Vimentin (FIG. 15), a series of antibodies for mitochondrial oxidative phosphorylation function (FIGS. 16-21) and against a series of antibodies related to mitochondrial membrane integrity (FIGS. 22-27)."}, "[4]": {"tested_on": "PaCa2 cells", "test": "Nexin assay for apoptosis (Annexin-V-PE/7-AAD flow cytometry), 24 h Q10", "assay_type": "cell-based", "conditions": "50 μM Q10 and 100 μM Q10, 24 hours", "from_the_text": "as §1"}, "[5]": {"tested_on": "PaCa-2 cells", "test": "Extracellular acidification rate (ECAR), SeaHorse XF analyzer", "assay_type": "cell-based", "conditions": "normoxia, high glucose (17 mM)", "from_the_text": "(§2) Environmental influencers (e.g., MIMs or Epi-shifters) may also be identified by changes in cellular energetics. One example of the measurement of cellular energetics are the real-time measures of the consumption of molecular oxygen and/or the change in pH of the media of a cell culture. For example, the ability of a potential epi-shifter to modulate the metabolic state of a cell may be analyzed using, for example, the XF24 Analyzer (Seahorse, Inc.). This technology allows for real time detection of oxygen and pH changes in a monolayer of cells in order to evaluate the bioenergetics of a cell microenvironment. The XF24 Analyzer measures and compares the rates of oxygen consumption (OCR), which is a measure of aerobic metabolism, and extracellular acidification (ECAR), which is a measure of glycolysis, both key indicators of cellular energetics.\n(§3) (SeaHorse Biosciences Inc, North Billerica, Mass.).\nIn contrast to normal cells, cancer cells are phenotypically primed to use high glucose for ATP generation (enhanced glycolysis) resulting in higher ECAR (Table 53, ECAR for untreated normoxia 17 mM) at 21 mpH/min. […] The associated decrease in OCR in these cells was likely associated with increased efficiency of the mitochondrial OXPHOS."}, "[6]": {"tested_on": "PaCa-2 pancreatic cancer cells", "test": "Oxygen consumption rate (OCR), SeaHorse XF analyzer", "assay_type": "cell-based", "conditions": "absence and presence of stressors (FIG. 32)", "from_the_text": "as §2, §3\n(§4) In contrast, cancer cells (e.g., MCF-7, PaCa-2) are inherently primed to culture at higher levels of glucose compared to normal cells due to their glycolytic phenotype for maintenance in culture."}, "[7]": {"tested_on": "MCF-7 breast cancer cells", "test": "Oxygen consumption rate (OCR), SeaHorse XF analyzer", "assay_type": "cell-based", "conditions": "absence and presence of stressors (FIG. 31)", "from_the_text": "as §2, §3, §4"}, "[8]": {"tested_on": "Succinate Dehydrogenase (SDH) Subunit B", "test": "Western blot, Succinate Dehydrogenase B in mitochondrial preparations", "assay_type": "cell-based", "conditions": "for Succinate Dehydrogenase B Average Normalized Volume: NCIE0808 Mitopreps", "protocol": "The above blots were stripped by incubating for 30 minutes with methanol, followed by two 10 minute washes with TBS-T, then 30 minutes of incubation with Stripping buffer at 50 deg C., and followed by two washes with 100 ml or more of TBS-T for 30′ each. The blots were scanned in laser scanner to check for complete stripping. The blots were activated with methanol for 5 seconds, washed with water for 5 minutes, and TBST for 15 minutes. The blots were blocked for 1 hour with 5% blocking reagent in TBS-T at room temperature and then washed 3 times with TBS-T (1×-15′; 2×5′ each) and probed with the primary antibody for PKM2, SDHB or SDHC in 5% BSA in TBS-T by incubation overnight at 4 deg C. with gentle shaking. The primary antibody for SDHC (ABNOVA H00006391-MO2; antimouse) was at 1:500 dilution. The primary antibody for SDHB was from Abcam ab4714-200; antimouse; at 1:1000 dilution. The primary antibody for Pyruvate Kinase M2 (PKM2) was from Novus Biologicals H00005315-D0IP; antirabbit; at 1:500 dilution. After incubation with primary antibodies, the membranes were washed 3 times with TBS-T (1×-15′; 2×5′ each) and probed with the secondary antibody (SDHB & C antimouse; and PKM2 antirabbit; 1:10,000 dilution) for 1 h on the orbital tilting shaker at room temperature. After 1 h of incubation, the blots were washed 3 times with TBS-T (1×-15′; 2×5′ each) and incubated with ECF reagent for 5 minutes and then each blot scanned with 5100 Fuji Laser scanner at 25 uM resolution, 16 bit, green laser, at 400V and at 500 V."}, "[9]": {"tested_on": "PC-3 cells", "test": "Nexin assay for apoptosis, 24 h Q10", "assay_type": "cell-based", "conditions": "50 μM and 100 μM Q10, 24 hours; increase less than in PaCa2", "from_the_text": "as §1"}, "[10]": {"tested_on": "MCF-7 cells", "test": "Nexin assay for apoptosis, 24 h Q10", "assay_type": "cell-based", "conditions": "50 μM and 100 μM Q10, 24 hours", "from_the_text": "as §1"}, "[11]": {"tested_on": "HepG2 cells", "test": "Nexin assay for apoptosis, 24 h Q10", "assay_type": "cell-based", "conditions": "50 μM Q10, 24 hours", "from_the_text": "as §1"}}, "data": [{"smiles": "COC1=C(OC)C(=O)C(C/C=C(\\C)CC/C=C(\\C)CC/C=C(\\C)CC/C=C(\\C)CC/C=C(\\C)CC/C=C(\\C)CC/C=C(\\C)CC/C=C(\\C)CC/C=C(\\C)CCC=C(C)C)=C(C)C1=O", "note": "[Q10, Coenzyme Q10]", "values": [{"measurement": "early and late apoptosis", "setting": "[1]", "value": "did not show any significant increases"}, {"measurement": "TNFRSF1A gene Regulation", "setting": "[2]; at 6 and 24 hours", "value": "Down regulated"}, {"measurement": "G6PD gene Regulation", "setting": "[2]; at 6 hours", "value": "Down regulated"}, {"measurement": "ICAM1 gene Regulation", "setting": "[2]; at 6 hours", "value": "Down regulated"}, {"measurement": "INPPL1 gene Regulation", "setting": "[2]; at 6 hours", "value": "Down regulated"}, {"measurement": "NOS3 gene Regulation", "setting": "[2]; at 6 hours", "value": "Down regulated"}, {"measurement": "PIK3CD gene Regulation", "setting": "[2]; at 6 hours", "value": "Down regulated"}, {"measurement": "PPARA gene Regulation", "setting": "[2]; at 6 hours", "value": "Down regulated"}, {"measurement": "PYGL gene Regulation", "setting": "[2]; at 6 hours", "value": "Down regulated"}, {"measurement": "SREBF1 gene Regulation", "setting": "[2]; at 6 hours", "value": "Down regulated"}, {"measurement": "STXBP2 gene Regulation", "setting": "[2]; at 6 hours", "value": "Down regulated"}, {"measurement": "TNF gene Regulation", "setting": "[2]; at 6 hours", "value": "Down regulated"}, {"measurement": "VEGFA gene Regulation", "setting": "[2]; at 6 hours", "value": "Down regulated"}, {"measurement": "levels of examined proteins (Western blot)", "setting": "[3]", "value": "upregulated or downregulated"}, {"measurement": "increase in both early and late apoptotic cells", "setting": "[4]", "value": "5-10 % of gated cells"}, {"measurement": "ECAR rates", "setting": "[5]", "value": "significant decrease"}, {"measurement": "OCR values", "setting": "[6]", "value": "consistent reduction"}, {"measurement": "OCR values", "setting": "[7]", "value": "consistent reduction"}, {"measurement": "Succinate Dehydrogenase B Average Normalized Volume", "setting": "[8]; 50 uM, 6 h", "value": 1077}, {"measurement": "Succinate Dehydrogenase B Average Normalized Volume", "setting": "[8]; 100 uM, 3 h", "value": 964}, {"measurement": "Succinate Dehydrogenase B Average Normalized Volume", "setting": "[8]; 100 uM, 6 h", "value": 934}, {"measurement": "SDH protein levels in the mitochondrion", "setting": "[8]; mitochondrial preparations of cancer cells", "value": "increase"}, {"measurement": "early and late apoptotic population", "setting": "[9]", "value": "increase in both early and late apoptotic population"}, {"measurement": "early/late apoptotic population", "setting": "[10]", "value": "increase only in early apoptotic population"}, {"measurement": "increase of gated population in late and early apoptotic stages", "setting": "[11]", "value": "about 20%"}]}]}
